The record followed here is ChEMBL document CHEMBL1154169, “Activity and molecular modeling of a new small molecule active against NNRTI-resistant HIV-1 mutants” (Eur J Med Chem, 2009).

Series [1] deals with Bovine viral diarrhea virus 1. Description: Antiviral activity against Bovine viral diarrhea virus infected in MDBK cells assessed as protection against virus-induced cytopathogenicity after 2 to 3 days by MTT assay. The series is classed as functional, organism-based. The conditions noted are these: Bovine viral diarrhea virus isolates and strains.
For series [2], the system named is Yellow fever virus. Nature of the series: Antiviral activity against Yellow fever virus infected in BHK-21 cells assessed as protection against virus-induced cytopathogenicity after 2 to 3 days by MTT assay. In kind it is functional, organism-based. In general terms: Cytopathic effects are the visible damage that an infection or toxin causes in cultured cells.

The subject of series [3] is Coxsackievirus B2. Nature of the series: Antiviral activity against Coxsackievirus B2 infected in african green monkey Vero cells assessed as reduction of virus plaque formation after 3 days. In kind it is functional, organism-based. The following applies: Enterovirus B, 72 h.
The subject of series [4] is Poliovirus 1. Description: Antiviral activity against Poliovirus Sb-1 infected in african green monkey Vero cells assessed as reduction of virus plaque formation after 3 days. The series is classed as functional, cell-based. The conditions noted are these: Enterovirus C, Sabin, 72 h.
The test system of series [5] is Human immunodeficiency virus 1. Nature of the series: Antiviral activity against HIV1 3B infected in human MT4 cells assessed as protection against virus-induced cytopathogenicity after 4 days by MTT assay. In kind it is functional, organism-based. The conditions noted are these: Human immunodeficiency virus 1, 3B, MT4, 96 h.
Series [6] deals with Respiratory syncytial virus. Nature of the series: Antiviral activity against Respiratory syncytial virus assessed as reduction of virus plaque formation by cell based assay. The series is classed as functional, organism-based. The following applies: human respiratory syncytial virus.
In series [7] the test system is Vesicular stomatitis virus. Description: Antiviral activity against Vesicular stomatitis virus assessed as reduction of virus plaque formation by cell based assay. The series is classed as functional, organism-based.
The test system of series [8] is Mammalian orthoreovirus 1. Description: Antiviral activity against Reovirus 1 assessed as protection against virus-induced cytopathogenicity by cell based MTT assay. In kind it is functional, organism-based.
The test system of series [9] is Vaccinia virus. Nature of the series: Antiviral activity against Vaccinia virus assessed as reduction of virus plaque formation by cell based assay. In kind it is functional, organism-based. The conditions noted are these: Orthopoxvirus vaccinia.
The nature of series [10]: Cytotoxicity against human MT4 cells assessed as reduction of cell viability after 4 days by MTT assay. The series is classed as cell-based. For orientation: Tetrazolium assays rely on reduction of a dye to a coloured formazan, in cell work by metabolically active cells.
For series [11], the system named is Human immunodeficiency virus 1. Description: Antiviral activity against NNRTI-resistant HIV1 N119 with reverse transcriptase Y181C mutant infected in human MT4 cells assessed as protection against virus-induced cytopathogenicity after 4 days by MTT assay. The series is classed as functional, organism-based. The conditions noted are these: Human immunodeficiency virus 1, N119, MT4, 96 h.

Series [12] deals with Human immunodeficiency virus 1. Description: Antiviral activity against NNRTI-resistant HIV1 A17 with reverse transcriptase K103N, Y181C mutant infected in human MT4 cells assessed as protection against virus-induced cytopathogenicity after 4 days by MTT assay. In kind it is functional, organism-based. The following applies: Human immunodeficiency virus 1, A17, MT4, 96 h.

Series [13] has as its system Human immunodeficiency virus 1. Description: Antiviral activity against HIV1 EFV with reverse transcriptase K103R, V179D, P225H mutant infected in human MT4 cells assessed as protection against virus-induced cytopathogenicity after 4 days by MTT assay. In kind it is functional, organism-based. The conditions noted are these: Human immunodeficiency virus 1, EFV, MT4, 96 h.

In series [14] the test system is Human immunodeficiency virus. Description: Inhibition of HIV reverse transcriptase RNA-dependent polymerase activity after 30 mins by fluorescent microplate assay.

Consider `c1cnc2c(c1)Cc1nn[nH]c1C2`, for which the EC50 in series [1], in series [2], in series [3], in series [4], in series [5] and in series [6] was greater than 100 µM each time. Further, the concentration for a half-maximal effect (EC50) in series [7], in [8], in series [9], in series [11], in series [12] and in series [13] was greater than 100 µM in each case. The CC50 (in general, the concentration giving 50% cytotoxicity) at 96 h in series [10] is greater than 100 µM.
Turning to `c1cnc2cc3[nH]nnc3cc2c1`, the concentration giving a half-maximal response (EC50) in series [1], in series [2], in series [3], in series [4], in series [5] and in series [6] was greater than 100 µM each time. For the same compound, the concentration giving a half-maximal response (EC50) in [7], in series [8], in [9], in [11], in [12] and in series [13] was greater than 100 µM in each case. For the same compound, the CC50 at 96 h in [10] was greater than 100 µM.
On to `O=C1Nc2ccc(Cl)cc2[C@@](C#CC2CC2)(C(F)(F)F)O1` [EFAVIRENZ], for which, in series [10], the half-maximal cytotoxic concentration (CC50) at 96 h amounted to 45 µM. The figures for the EC50 in series [12] and in [13] were 0.06 µM and 7 µM, respectively.
For `[O-][n+]1n[nH]c2c1Cc1cccnc1C2`, the EC50 (in general, the midpoint of the concentration-response curve) is greater than 100 µM in series [1]; greater than 100 µM in series [2]; greater than 100 µM in [3]; greater than 100 µM in series [4]; 12 µM in series [5]; greater than 100 µM in [6]. Also, the EC50 was greater than 100 µM in [7]; greater than 100 µM in [8]; greater than 100 µM in series [9]; 4 µM in series [11]; 10 µM in series [12]; 9 µM in [13]. Further, the half-maximal cytotoxic concentration (CC50) at 96 h in series [10] was greater than 100 µM. The Activity entry in [14] is “Dose-dependent effect”.
On to `CCOn1nnc2c1Cc1cccnc1C2`, for which the 50% effective concentration (EC50) in series [1], in series [2], in [3], in series [4], in series [5] and in series [6] was greater than 100 µM in each case. Further, the EC50 in [7], in series [8], in series [9], in series [11], in series [12] and in [13] was greater than 100 µM in each case. Also, the CC50 at 96 h in series [10] is greater than 100 µM.
`[O-][n+]1n[nH]c2c(Cl)c3ncccc3cc21`: the concentration giving a half-maximal response (EC50) in series [1], in [2], in [3], in series [4], in [5] and in series [6] was greater than 100 µM throughout. In addition, the 50% effective concentration (EC50) in series [7], in series [8], in series [9], in [11], in [12] and in series [13] was greater than 100 µM in each case. Further, the CC50 at 96 h in [10] is greater than 100 µM.
`c1c2c(cc3[nH]nnc13)NCCC2`: the EC50 in series [1], in [2], in [3], in series [4], in [5] and in [6] was greater than 100 µM in each case. The EC50 in series [7], in series [8], in series [9], in series [11], in [12] and in series [13] was greater than 100 µM throughout. Further, the half-maximal cytotoxic concentration (CC50) at 96 h in series [10] was greater than 100 µM.
Regarding `Cc1ccnc2c1NC(=O)c1cccnc1N2C1CC1` [NEVIRAPINE], the CC50 at 96 h in series [10] was greater than 100 µM. For the same compound, the half-maximal effective concentration (EC50) was 7 µM in series [11], greater than 20 µM in [12] and greater than 20 µM in series [13].
